PMC8795738, “The Tarantula Venom Peptide Eo1a Binds to the Domain II S3-S4 Extracellular Loop of Voltage-Gated Sodium Channel NaV1.8 to Enhance Activation” (Frontiers in Pharmacology, 2022)
Where a SMILES comes first, the peptide text is derived from it. Bridges are numbered along the chain shown (N, C = ends).

Assays:
NaV1.2 = experiment: I-V protocol, whole-cell patch-clamp, NaV1.2; assay type: cell-based, human; settings: Eo1a 10 μM
Protocol: (§1) Human Embryonic Kidney (HEK) 293 cells stably expressing human NaV1.1 to NaV1.7/β1 (SB Drug Discovery, Glasgow, United Kingdom), Chinese Hamster Ovary (CHO) cells stably expressing human NaV1.8/β3 in a tetracycline-inducible system (ChanTest, Cleveland, OH, United States), and HEK293 cells stably expressing rat transient receptor potential vanilloid 1 (TRPV1) were cultured as previously described ([Yin et al., 2020]). Human KV2.1 and NaV1.7 mutants were transiently transfected into HEK293 cells stably expressing β1/β2 using Lipofectamine 2000 (Thermo Fisher Scientific, Scoresby, VIC, Australia) and used for patch-clamp experiments 48 h after transfection. Cells were grown in an incubator at 37°C with 5% CO2 and passaged every 3–4 d (at 70–80% confluency) using TrypLE Express (Thermo Fisher Scientific).
(§2) Automated whole-cell patch-clamp recordings were performed with a QPatch-16 automated electrophysiology platform (Sophion Bioscience, Ballerup, Denmark) using single-hole (QPlate 16 with a standard resistance of 2 ± 0.4 MΩ) or multi-hole (QPlate 16X with a standard resistance 0.2 ± 0.04 MΩ, NaV1.8 only) as previously described ([McMahon et al., 2020]).
(§3) The extracellular solution (ECS) consisted of (in mM) 145 NaCl (replaced with 70 choline chloride for NaV1.4, NaV1.5 and NaV1.7), 4 KCl, 2 CaCl2, 1 MgCl2, 10 HEPES, and 10 glucose, pH to 7.4 with NaOH (adjusted to 305 mOsm/L with sucrose). For NaV recordings the intracellular solution (ICS) consisted of (in mM) 140 CsF, 1 EGTA, 5 CsOH, 10 HEPES, and 10 NaCl, pH to 7.3 with CsOH (adjusted to 320 mOsm/L with sucrose). For KV2.1 recordings the ICS consisted of (in mM) 50 KCl, 60 KF, 10 EGTA, 10 HEPES, 10 NaCl pH to 7.3 with KOH (adjusted to 320 mOsm/L with sucrose). […]
(§4) The time constant of fast inactivation (τ) was computed by fitting the current decay traces with a single exponential function using QPatch Assay Software 5.6 (Sophion). The time to peak was calculated from pulse onset to peak inward current using QPatch Assay Software 5.6 (Sophion).

NaV1.3 = experiment: I-V protocol, whole-cell patch-clamp, NaV1.3; assay type: cell-based, human; settings: Eo1a 10 μM
Protocol: as §1, §2, §3, §4

NaV1.4 = experiment: I-V protocol, whole-cell patch-clamp, NaV1.4; assay type: cell-based, human; settings: Eo1a 10 μM
Protocol: as §1, §2
(§5) The extracellular solution (ECS) consisted of (in mM) 145 NaCl (replaced with 70 choline chloride for NaV1.4, NaV1.5 and NaV1.7), 4 KCl, 2 CaCl2, 1 MgCl2, 10 HEPES, and 10 glucose, pH to 7.4 with NaOH (adjusted to 305 mOsm/L with sucrose). For NaV recordings the intracellular solution (ICS) consisted of (in mM) 140 CsF, 1 EGTA, 5 CsOH, 10 HEPES, and 10 NaCl, pH to 7.3 with CsOH (adjusted to 320 mOsm/L with sucrose). For KV2.1 recordings the ICS consisted of (in mM) 50 KCl, 60 KF, 10 EGTA, 10 HEPES, 10 NaCl pH to 7.3 with KOH (adjusted to 320 mOsm/L with sucrose). TTX (1 μM) was added to the ECS for NaV1.8 recordings to inhibit background endogenous TTX sensitive current in CHO cells.
I-V curves were obtained with a holding potential of −90 mV followed by a series of 500 ms step pulses that ranged from −110 to +80 mV in 5-mV increments (repetition interval 5 s) before and after 5 min incubation with Eo1a (10 μM). Conductance-voltage (G-V) curves were obtained by calculating the conductance (G) at each voltage (V) using equation G = I/(V − V rev ), where V rev is the reversal potential. G-V curves were fitted with a Boltzmann equation. […]
as §4

NaV1.8 = NaV1.8 (Homo sapiens, UniProt Q9Y5Y9); experiment: I-V protocol, whole-cell patch-clamp, NaV1.8; assay type: cell-based; settings: Eo1a 10 μM
Chain of NaV1.8 (Q9Y5Y9 whole entry): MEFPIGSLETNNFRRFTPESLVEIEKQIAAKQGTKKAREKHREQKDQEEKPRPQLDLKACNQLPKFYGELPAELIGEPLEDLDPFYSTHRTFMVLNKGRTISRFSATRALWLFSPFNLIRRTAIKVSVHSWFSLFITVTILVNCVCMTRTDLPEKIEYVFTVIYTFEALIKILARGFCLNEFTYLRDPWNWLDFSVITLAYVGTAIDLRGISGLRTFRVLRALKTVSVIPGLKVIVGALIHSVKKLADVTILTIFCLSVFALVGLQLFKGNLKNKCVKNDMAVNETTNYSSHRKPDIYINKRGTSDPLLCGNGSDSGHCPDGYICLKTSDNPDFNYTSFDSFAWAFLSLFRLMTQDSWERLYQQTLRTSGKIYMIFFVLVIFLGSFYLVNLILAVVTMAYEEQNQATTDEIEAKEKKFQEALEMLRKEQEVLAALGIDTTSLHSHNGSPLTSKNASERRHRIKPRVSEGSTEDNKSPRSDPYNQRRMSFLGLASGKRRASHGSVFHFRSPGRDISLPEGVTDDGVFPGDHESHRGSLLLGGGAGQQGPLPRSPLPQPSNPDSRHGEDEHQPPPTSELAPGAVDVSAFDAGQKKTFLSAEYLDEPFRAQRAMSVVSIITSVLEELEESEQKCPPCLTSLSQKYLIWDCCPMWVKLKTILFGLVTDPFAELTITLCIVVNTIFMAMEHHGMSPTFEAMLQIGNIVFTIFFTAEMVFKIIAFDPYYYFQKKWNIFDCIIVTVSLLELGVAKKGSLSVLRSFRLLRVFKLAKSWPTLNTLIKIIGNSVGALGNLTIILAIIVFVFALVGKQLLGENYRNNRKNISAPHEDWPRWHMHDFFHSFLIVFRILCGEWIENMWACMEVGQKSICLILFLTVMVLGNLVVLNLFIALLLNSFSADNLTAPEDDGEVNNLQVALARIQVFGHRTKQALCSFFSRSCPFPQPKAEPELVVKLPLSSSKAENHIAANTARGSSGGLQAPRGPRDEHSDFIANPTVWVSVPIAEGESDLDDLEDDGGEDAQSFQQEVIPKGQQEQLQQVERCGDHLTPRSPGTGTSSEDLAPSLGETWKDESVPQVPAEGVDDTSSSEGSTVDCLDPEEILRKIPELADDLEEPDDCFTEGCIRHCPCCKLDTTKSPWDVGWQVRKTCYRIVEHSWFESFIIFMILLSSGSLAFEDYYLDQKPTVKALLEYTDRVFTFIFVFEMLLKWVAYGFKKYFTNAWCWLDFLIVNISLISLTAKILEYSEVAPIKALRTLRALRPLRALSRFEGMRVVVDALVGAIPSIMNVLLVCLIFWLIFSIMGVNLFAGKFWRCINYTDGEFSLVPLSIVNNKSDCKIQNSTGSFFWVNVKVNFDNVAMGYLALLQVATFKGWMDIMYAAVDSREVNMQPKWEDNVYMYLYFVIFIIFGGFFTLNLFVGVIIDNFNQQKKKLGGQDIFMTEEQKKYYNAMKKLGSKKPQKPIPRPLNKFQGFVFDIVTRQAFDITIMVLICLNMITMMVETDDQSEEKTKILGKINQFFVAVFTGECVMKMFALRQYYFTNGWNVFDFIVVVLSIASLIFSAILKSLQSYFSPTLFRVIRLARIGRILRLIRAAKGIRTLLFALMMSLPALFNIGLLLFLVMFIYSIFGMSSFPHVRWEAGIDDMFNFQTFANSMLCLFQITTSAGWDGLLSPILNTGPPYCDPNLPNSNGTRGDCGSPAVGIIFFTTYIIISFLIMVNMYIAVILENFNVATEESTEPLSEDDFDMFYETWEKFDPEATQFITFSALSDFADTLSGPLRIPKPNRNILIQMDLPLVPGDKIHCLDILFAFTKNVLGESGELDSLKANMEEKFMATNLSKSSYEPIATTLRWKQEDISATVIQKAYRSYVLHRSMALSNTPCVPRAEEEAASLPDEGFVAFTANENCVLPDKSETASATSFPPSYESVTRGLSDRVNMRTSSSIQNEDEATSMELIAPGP
Protocol: as §1, §2, §5
I-V curves were obtained with a holding potential of −90 mV followed by a series of 500 ms step pulses that ranged from −110 to +80 mV in 5-mV increments (repetition interval 5 s) before and after 5 min incubation with Eo1a (10 μM). Conductance-voltage (G-V) curves were obtained by calculating the conductance (G) at each voltage (V) using equation G = I/(V − V rev ), where V rev is the reversal potential. G-V curves were fitted with a Boltzmann equation. The voltage dependence of steady-state fast inactivation was examined using a 10-ms pulse of −20 mV (+10 mV for NaV1.8) immediately after the 500-ms step above to assess the available non-inactivated channels.
as §4

[1] = tested on: NaV1.7 with DII S3-S4 loop of NaV1.8; experiment: Voltage-dependence of activation, NaV1.7/NaV1.8 chimera DII S3-S4; assay type: cell-based, human; settings: Eo1a 10 μM; NaV1.7 with NaV1.8 DII S3-S4; HEK293 β1/β2, transient; mean ± SEM, n = 3–6 cells
Protocol: as §1
(§6) Wild-type (WT) hNaV1.7 cDNA (NM_002,977, a gift from Dr James Cox, University College London) was subjected to in vitro site-directed mutagenesis using the QuikChange™ XL mutagenesis kit (Agilent Technologies) following the manufacturer’s instructions. NaV1.7 mutants were generated by substituting the domain II (DII) S1-S2 loop, the DII S3-S4 loop, the domain IV (DIV) S1-S2 loop and the DIV S3-S4 loop in NaV1.7 with the corresponding regions of NaV1.8. The mutations were verified by sequencing at the Brisbane node of the Australian Genome Research Facility. […]

[2] = tested on: NaV1.7 with DIV S3-S4 loop of NaV1.8; experiment: Voltage-dependence of activation, NaV1.7/NaV1.8 chimera DIV S3-S4; assay type: cell-based, human; settings: Eo1a 10 μM; NaV1.7 with NaV1.8 DIV S3-S4; HEK293 β1/β2, transient; mean ± SEM, n = 3–6 cells
Protocol: as §1, §6

SMILES: CC[C@H](C)[C@@H]1NC(=O)[C@H](CCCNC(=N)N)NC(=O)[C@@H]2CSSC[C@@H]3NC(=O)CNC(=O)CNC(=O)[C@H](CC(C)C)NC(=O)[C@H](Cc4ccccc4)NC(=O)[C@H](Cc4c[nH]c5ccccc45)NC(=O)[C@H](CCCNC(=N)N)NC(=O)[C@@H](NC(=O)[C@@H](N)CC(=O)O)CSSC[C@H](NC(=O)[C@H](CSSC[C@@H](C(=O)N[C@@H](C)C(=O)N[C@@H](Cc4c[nH]c5ccccc45)C(=O)N[C@@H](CC(=O)O)C(=O)NCC(=O)N[C@H](C(=O)N[C@@H](Cc4ccccc4)C(N)=O)[C@@H](C)O)NC(=O)[C@H](Cc4ccc(O)cc4)NC(=O)[C@H](CCCCN)NC(=O)[C@H]([C@@H](C)CC)NC(=O)[C@H](Cc4ccc(O)cc4)NC(=O)CNC(=O)[C@H](CC(=O)O)NC1=O)NC(=O)[C@H](CC(=O)O)NC(=O)[C@H](CO)NC(=O)[C@H](CC(=O)O)NC(=O)[C@H](CCCCN)NC(=O)[C@H](CO)NC3=O)C(=O)N[C@@H](CCCCN)C(=O)N[C@@H](Cc1c[nH]cn1)C(=O)N[C@@H](CC(C)C)C(=O)N[C@@H](C)C(=O)N2 [Eo1a] (H-DCRWFLGGCSKDSDCCKHLACRIDGYIKYCAWDGTF-NH2; disulfide 2-16, 9-21, 15-30 (inferred); N-terminus assumed)
- V1/2 activation (NaV1.2; 5 min, control −15.9 ± 1.2 mV, *p < 0.05, mean ± SEM, n = 4–6): −21.3 mV
- V1/2 inactivation (steady-state fast inactivation) (NaV1.2; 5 min, control −54.6 ± 1.6 mV, mean ± SEM, n = 4–6): −52.7 ± 0.5
- effect on inactivation kinetics (NaV1.2; test pulse −20 mV): minimal effect
- V1/2 activation (NaV1.3; 5 min, control −20.4 ± 2.2 mV, *p < 0.05, mean ± SEM, n = 4–6): −27.9 mV
- V1/2 inactivation (steady-state fast inactivation) (NaV1.3; 5 min, control −63.2 ± 1.0 mV, mean ± SEM, n = 4–6): −63.0 ± 1.5
- effect on inactivation kinetics (NaV1.3; test pulse −20 mV): minimal effect
- peak current I/I0 (NaV1.4; 5 min, peak from I-V protocol at any voltage, normalised to buffer control, HEK293 hNaV1.4/β1, mean ± SEM, n = 4–6 cells): 0.68 ± 0.04
- V1/2 activation (NaV1.4; NaV1.4, 5 min, control −27.6 ± 1.4 mV, mean ± SEM, n = 4–6): −28.8 ± 1.2 mV
- V1/2 inactivation (steady-state fast inactivation) (NaV1.4; NaV1.4, 5 min, control −65.8 ± 1.3 mV, mean ± SEM, n = 4–6): −67.6 ± 1.2
- effect on inactivation kinetics (NaV1.4; NaV1.4, test pulse −20 mV): minimal effect
- ΔV50 voltage-dependence of steady-state fast inactivation (NaV1.8; 5 min, CHO cells, hNaV1.8/β3, 10-ms pulse to +10 mV after 500-ms step, hyperpolarising shift, mean ± SEM, n = 4 cells): –15.5 ± 1.8 mV
- ΔV50 voltage-dependence of activation (NaV1.8; 5 min, CHO cells, hNaV1.8/β3, Boltzmann fit, hyperpolarising shift vs before addition, mean ± SEM, n = 4 cells): –20.5 ± 1.2 mV
- peak current I/I0 (NaV1.8; 5 min, peak from I-V protocol at any voltage, normalised to buffer control, CHO hNaV1.8/β3, mean ± SEM, n = 4–6 cells): 1.8 ± 0.08
- window current (NaV1.8; NaV1.8, n = 4 cells): comparatively unchanged
- activation kinetics (time to peak) (NaV1.8; NaV1.8, potentials between −5 mV and +45 mV, n = 4 cells, two-way ANOVA): without significantly altering
- fast inactivation kinetics (time constant) (NaV1.8; NaV1.8, single exponential fit, −5 mV to +45 mV, n = 4 cells, two-way ANOVA): without significantly altering
- V1/2 activation (NaV1.8; NaV1.8, 5 min, control +7.0 ± 1.8 mV, *p < 0.05, mean ± SEM, n = 4–6): −13.5 mV
- V1/2 inactivation (steady-state fast inactivation) (NaV1.8; NaV1.8, 5 min, control −27.4 ± 2.7 mV, *p < 0.05, mean ± SEM, n = 4–6): −42.9 ± 2.1*
- ΔV1/2 activation [1]: −20.4 ± 1.4 mV
- ΔV1/2 activation [2]: −6.7 ± 0.5 mV
